Data on eight molecules can be found in paper PMC12951551, “Do Amino-Oxetanes Resemble Amides? A Matched Molecular Pairs Property and Structural Comparison” (Journal of Medicinal Chemistry, 2026).

The logD is the decadic logarithm of the distribution of all forms, ionised or not, between an organic phase and buffer at a given pH. For orientation: solubility means the dissolved amount per volume that the medium holds. Read a high solubility as a readily soluble substance. A word on the Papp: it is a coefficient for how fast a substance crosses the barrier. Usually pKa stands for the negative logarithm of the acid dissociation constant. Higher therefore signals a weaker acid or stronger base.

Each structure is given as a SMILES string. Converted amounts (≈) assume the structure as drawn.

The nature of data set [1]: Shake flask LogD (SFLogD) assay. The class given is physicochemical. The settings on record: for logD: pH = 7.4, octanol/water shake flask, average of 2 runs unless otherwise stated. As for the experimental part:
(§1) Permeability assay (RRCK): Ralph Russ canine kidney cells were used for permeability measurements using a cell monolayer in 96-transwell format. The detailed assay conditions have been reported previously.9 Test compounds were added to the donor wells and a buffer was added to the receiver wells to start the apical to basolateral transport assay.
(§2) Time 0 and 1.5 h incubation samples were taken for LC-MS/MS analysis. Apparent permeability (Papp) was calculated using the equation below (1), where Area is the surface area of the cell monolayer (0.0625 cm2), CD(0) is the […]

Data set [2] is described as follows: Chemical (pH) stability assay. As to conditions: 24 h under acidic, neutral, and basic conditions. It is filed as physicochemical. As for the experimental part:
Chemical stability assay: The chemical stability assay was performed in 384 well plate format (volume = […]).
Plates were prefilled with 70 µL of the appropriate buffer (pH 1.2, 7.4, 10) after which the wells were spiked with 5 µL of test compounds (1 mM). Samples were incubated for their timepoint of interest (1 h, 4 h, 24 h) at 37 °C after which the samples were diluted in MeCN (and pH 12.8 buffer for experiment at pH 1.2), mixed with an internal standard and […]
(§3) Aqueous buffer preparation: pH 3: 50 µL of 1N hydrochloric acid was added to 500 mL of deionized water. The solution was titrated with 1N hydrochloric acid to pH 3, and back titrated with 1N sodium hydroxide. pH 7.4: 100 mM sodium phosphate buffer is made by adding 56.4 g of dibasic sodium phosphate and 10.3 g of monobasic sodium phosphate to 4 L of deionized water. 250 µL of 100 mM sodium phosphate buffer was diluted with 250 µL of deionized water. The solution was titrated with 1N hydrochloric acid to pH 7.4, and back titrated with 1N sodium hydroxide. pH 10: Fisher Scientific pH 10 buffer (SB116-500) containing potassium hydroxide, potassium carbonate, and potassium […]
as §2

A short description of a further data set: Kinetic solubility. It is filed as physicochemical. The settings on record: for solubility at 24 h: aqueous pH buffer, aqueous buffer, kinetic from dmso stock, 37 °C, 600 µM start. As for the experimental part:
as §3
pH 12.8: 30 mL of 1N NaOH was added to 200 mL of deionized water. The solution was titrated with 1N sodium hydroxide to pH 12.8 and back titrated with 1N hydrochloric acid.
Kinetic solubility: Samples were diluted to 600 µM in the appropriate pH buffer (pH: 3, 7.4, 10) and to 600 µM (assumed 100% solubility) in a DMSO standard. Samples were mixed thoroughly and incubated at 37 °C for 24 h.
Following incubation, pH samples were transferred to a […] PVDF (low binding) and filtered to remove any precipitate. The filtrate was collected and analyzed via MS/MS. The ratio of MS response (DMSO:pH) is taken and multiplied by the initial 600 µM concentration to determine the concentration (solubility) of the samples in pH buffers. […]
as §1, §2

Data set [3] can be described thus: Permeability assay (RRCK). The class given is in vitro ADME, canine. As to conditions: dog, MDCK, apical to basolateral, average of 2 runs, footnote b = only one replicate.
A short description of data set [4]: Experimental pKaH (amine basicity). It is filed as physicochemical. The settings on record: for pKa: Table S2; for pKaH: text and Figure 6. From the text:
The influence of basicity is an ongoing rationale for inclusion of the oxetanes in drug candidates, providing the potential to attenuate off-target effects including hERG channel inhibition. […] As comparison against the benzamide analogue is not possible, we instead looked at the head-to-head comparison between amino-oxetane 4a and benzylamine 18 (Figure ).

Another data set has as its system human hepatocytes. The data set can be described thus: Human Hepatocyte (HHEP) stability assay, clearance. As to conditions: human hepatocytes, 0.5 million cells/mL, 1 µM test compound. The class given is in vitro ADME. How it is done: Human Hepatocyte (HHEP) assay: The high throughput HHEP stability assay was performed in a 384-well format (Greiner Bio-One, Monroe, NC). The cryopreserved HHEP were thawed, and re-suspended in Williams E medium (WEM, custom formula number 91-5233EC; Invitrogen, Grand Island, NY) supplemented with HEPES and Na2CO3. The cells were counted using the Trypan Blue exclusion method. A multidrop liquid dispenser (Multidrop DW, Thermo Scientific, Waltham, MA) was used to add the HHEP suspensions to the 384-well plates. The cell plates were covered and transferred to a Cytomat 2 incubator (ThermoFisher) and Biomek i7 (Beckman Coulter, Indianapolis, IN), equipped with three 3position MéCour heat exchangers. Test compounds were diluted on the Biomek i7 with buffer (15 µL) and added to the HHEP (30 µL). The final incubation contained 0.5 million cells/mL and 1 µM test compound in 45 µL total volume containing 0.01% DMSO. The incubation was carried out at 37 °C in the Cytomat 2 incubator (relative humidity ≥ 90%, 5% CO2/95% air). At various time points (2, 4, 11, 45, 75, 120, and 240 min), the plate was pulled out from the incubator by the Biomek i7 robot and put on the MéCour heated exchanger. Samples (3 µL) were transferred to a 384-well plate containing 30 µL acetonitrile with an internal standard (IS) to quench the reaction. Water (60 µL) was added to the quenched plate to dilute the organic solvent content for LC-MS/MS analysis. The plates were centrifuged at 3000 rpm for 10 min at 4 °C, sealed and subsequently analyzed using LC-MS/MS without further transfer of the supernatant.
Propranolol (CYP2D6), midazolam (CYP3A) and triazolam (CYP3A, low clearance), naloxone (UGT2B7), carbazeran (AO), and verapamil (CYP3A, CYP2C8) were used as positive controls. For CYP inhibition study, 1 mM ABT (a pan-cYP inhibitor) was pre-incubated with HHEP for 30 minutes at 37 °C before adding test compounds. Values are n >3 unless […]
as §1, §2

Setting [5] is: across acidic, neutral, and basic conditions, compared with benzamide counterpart.

Consider `COc1ccc(C2(NCC34C[C@H]5C[C@@H](C3)C[C@@H](C4)C5)COC2)cc1` [1a, N-(((3R,5R,7R)-Adamantan-1-yl)Methyl)-3-(4-Methoxyphenyl)Oxetan-3-Amine], for which, in data set [1], the logD amounted to 3.6. In addition, the “pH stability, in words” value in data set [2] was “reduced stability under neutral and basic conditions”. Also, the solubility at 24 h is 533 µM (≈ 175 µg/mL) in the data set “Kinetic solubility” (pH 3), below 8.9 µM in the data set “Kinetic solubility” (pH 7.4) and below 0.3 µM in the data set “Kinetic solubility” (pH 10). Further, in the data set “Kinetic solubility” (pH 3), the “Kinetic solubility, in words” value is listed as “markedly improved solubility”. The molecule also came in with a Papp at 1.5 h in data set [3] of 25.8 ×10⁻⁶ cm/s.

The molecule `COc1ccc(C2(N3CCOCC3)COC2)cc1` [4a, 4-(3-(4-Methoxyphenyl)Oxetan-3-yl)Morpholine] registered a logD in data set [1] of 1.17. Further, the “Kinetic solubility, in words” value in “Kinetic solubility” (setting [5]) is recorded as “solubility comparable to their analogous benzamides”. In addition, the figures for the solubility at 24 h in the data set “Kinetic solubility” (pH 3), in “Kinetic solubility” (pH 7.4) and in the data set “Kinetic solubility” (pH 10) were 486 µM (≈ 121 µg/mL), 556 µM (≈ 139 µg/mL) and 492 µM (≈ 123 µg/mL), respectively. The molecule further showed a pKa in data set [4] of 4.61. Moreover, the pKaH in data set [4] is reported as 4.61. Further, the HHEPG clearance in the data set with human hepatocytes turned out to be 4 μL min^−1 million^−1. This molecule also yielded a Papp at 1.5 h in data set [3] of 39.2 ×10⁻⁶ cm/s.

In data set [1], `COc1ccc(C(=O)Nc2ccc(NC(C)=O)cc2)cc1` [6b, N-(4-Acetamidophenyl)-4-Methoxybenzamide] displayed a logD of 1.92. The solubility at 24 h in the data set “Kinetic solubility” (pH 3) worked out at 13 µM (≈ 3.7 µg/mL); in the data set “Kinetic solubility” (pH 7.4), 10 µM (≈ 2.84 µg/mL); in the data set “Kinetic solubility” (pH 10), 8 µM (≈ 2.27 µg/mL). This molecule also gave an HHEPG clearance in the data set with human hepatocytes of 57 μL min^−1 million^−1. The molecule further displayed a Papp at 1.5 h in data set [3] of 14 ×10⁻⁶ cm/s.

`COc1ccc(C2(Nc3ccc(OC)nc3)COC2)cc1` [8a, 6-Methoxy-N-(3-(4-Methoxyphenyl)Oxetan-3-yl)Pyridin-3-Amine]: the logD in data set [1] came to 2.54. For the same molecule, the “Kinetic solubility, in words” value in “Kinetic solubility” (setting [5]) is listed as “higher solubility”. The solubility at 24 h turned out to be 412 µM (≈ 118 µg/mL) in “Kinetic solubility” (pH 3), 358 µM (≈ 103 µg/mL) in the data set “Kinetic solubility” (pH 7.4) and 326 µM (≈ 93.3 µg/mL) in “Kinetic solubility” (pH 10). Moreover, in the data set with human hepatocytes, the HHEPG clearance came to 42 μL min^−1 million^−1. Moreover, the apparent permeability coefficient (Papp) at 1.5 h in data set [3] turned out to be 37.2 ×10⁻⁶ cm/s.

Molecule `COc1ccc(C(=O)Nc2ccc(OC)nc2)cc1` [8b, 4-Methoxy-N-(6-Methoxypyridin-3-yl)Benzamide] yielded a logD in data set [1] of 2.49. Besides, the solubility at 24 h is 50 µM (≈ 12.9 µg/mL) in “Kinetic solubility” (pH 3), 31 µM (≈ 8.01 µg/mL) in the data set “Kinetic solubility” (pH 7.4) and 24 µM (≈ 6.2 µg/mL) in the data set “Kinetic solubility” (pH 10). In the data set with human hepatocytes, this molecule came in with an HHEPG clearance of 13 μL min^−1 million^−1. For the same molecule, the Papp at 1.5 h in data set [3] was determined as 20.9 ×10⁻⁶ cm/s.

As for `O=S(=O)(c1ccccc1)c1ccc(C2(N3CCOCC3)COC2)cc1` [10a, 4-(3-(4-(Phenylsulfonyl)Phenyl)Oxetan-3-yl)Morpholine], the “Change in SFlogD of the carbonyl-to-oxetane replacement” value in data set [1] (pH 7.4, amino-oxetane versus matched benzamide) is “+0.44”. The molecule also registered a logD in data set [1] of 1.55. Also, the pKa in data set [4] came out at 3.08. Moreover, in the data set on human hepatocytes, the HHEPG clearance amounted to 4 μL min^−1 million^−1. Also, in data set [3], the Papp at 1.5 h amounted to 36.7 ×10⁻⁶ cm/s.

In data set [4], `COc1ccc(CNCc2ccccc2)cc1` [S1] showed a pKa of 8.81.

In data set [4], `COc1ccc(CN2CCOCC2)cc1` [compound 18, 4-(4-Methoxybenzyl)Morpholine] returned a pKa of 7.25 and a pKaH of 7.25.
